Test results: patent publication US7572815B2, “Amide derivative” (Ajinomoto Co., Inc., priority 2003, dated 2009)

Tested on: male ICR mouse
Experiment: Acetic acid-induced writhing method
Assay type: in vivo
Details: intraperitoneal, 30 minutes before 0.8% acetic acid
Experimental: The effect of the test compound was considered using male ICR mouse (4-week-old) according to a writhing test method induced by acetic acid. For intraperitoneal administration of a test compound and a standard product, the test compound was dissolved in a saline containing 5% DMSO and 5% Tween 80 to a suitable concentration. The test compound was administered 30 minutes before intraperitoneal administration of 0.8% acetic acid solution (diluted with saline), and the number of writhing was measured for 15 minutes from 5 minutes after acetic acid administration. A saline containing 5% DMSO and 5% Tween 80 was intraperitoneally administered to all control groups (vehicle administration group). Using indomethacin as a standard product, the same test was performed.
The number of writhing by each test compound is shown in FIG. 1, and the number of writhings by indomethacin is shown in FIG. 2.

SMILES	Inhibition ratio (%) of number of writhing (dose 10 mg/kg) [%]	Inhibition ratio (%) of number of writhing (dose 20 mg/kg) [%]
COc1ccc2c(c1)c(CC(=O)O)c(C)n2C(=O)c1ccc(Cl)cc1 [indomethacin, reference compound]	31	–
CCN(CCCC(=O)Nc1ccccc1Br)c1cccc(C)c1 [Example 52, N-(2-bromophenyl)-4-(ethyl-3-methylanilino)butanamide]	19	67
